Measured values taken from the kinase profiling compilation of Christmann-Franck et al. (2016).
Several values for one entry are separate records, joined by “and”; a condition that tells them apart may be missing. Equal entries are not always repeated.

How the values were obtained:
Assay in all cases: radiometric filter-binding kinase assay, Kinase HotSpot
Details in all cases: compound 0.5 µM; ATP 10 µM
ABL2 (human) = ABL2 (human) (UniProt P42684)
BMX (human) = BMX (human) (UniProt P51813)
BTK (human) = BTK (human) (UniProt Q06187)
Chain of BTK (human) (Q06187 whole entry, looked up): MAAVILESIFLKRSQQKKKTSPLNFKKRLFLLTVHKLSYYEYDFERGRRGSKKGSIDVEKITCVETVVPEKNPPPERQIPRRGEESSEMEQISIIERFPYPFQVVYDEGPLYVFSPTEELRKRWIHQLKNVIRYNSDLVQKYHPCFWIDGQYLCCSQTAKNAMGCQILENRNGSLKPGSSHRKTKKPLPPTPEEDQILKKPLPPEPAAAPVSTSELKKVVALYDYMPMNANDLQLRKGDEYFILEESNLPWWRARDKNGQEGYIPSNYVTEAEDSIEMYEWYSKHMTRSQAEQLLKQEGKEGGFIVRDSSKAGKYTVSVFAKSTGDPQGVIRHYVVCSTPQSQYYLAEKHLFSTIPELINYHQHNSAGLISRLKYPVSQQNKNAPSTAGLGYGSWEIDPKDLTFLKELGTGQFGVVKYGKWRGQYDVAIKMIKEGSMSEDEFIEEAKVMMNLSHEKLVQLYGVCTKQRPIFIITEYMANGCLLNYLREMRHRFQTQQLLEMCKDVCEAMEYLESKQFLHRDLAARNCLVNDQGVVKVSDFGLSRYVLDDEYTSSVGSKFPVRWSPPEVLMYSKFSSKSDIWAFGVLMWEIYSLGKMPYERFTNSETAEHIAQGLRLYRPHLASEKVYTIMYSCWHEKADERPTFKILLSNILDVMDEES

CAMK1D (human) = CAMK1D (human) (UniProt Q8IU85)
CAMK2B (human) = CAMK2B (human) (UniProt Q13554)
CDK4 CCND3 (human) = CDK4 CCND3 (human) (UniProt P30281+P11802)
CHUK (human) = CHUK (human) (UniProt O15111)
CSNK1G1 (human) = CSNK1G1 (human) (UniProt Q9HCP0)
DCLK2 (human) = DCLK2 (human) (UniProt Q8N568)
DSTYK (human) = DSTYK (human) (UniProt Q6XUX3)
DYRK4 (human) = DYRK4 (human) (UniProt Q9NR20)
Chain of DYRK4 (human) (Q9NR20 whole entry, looked up): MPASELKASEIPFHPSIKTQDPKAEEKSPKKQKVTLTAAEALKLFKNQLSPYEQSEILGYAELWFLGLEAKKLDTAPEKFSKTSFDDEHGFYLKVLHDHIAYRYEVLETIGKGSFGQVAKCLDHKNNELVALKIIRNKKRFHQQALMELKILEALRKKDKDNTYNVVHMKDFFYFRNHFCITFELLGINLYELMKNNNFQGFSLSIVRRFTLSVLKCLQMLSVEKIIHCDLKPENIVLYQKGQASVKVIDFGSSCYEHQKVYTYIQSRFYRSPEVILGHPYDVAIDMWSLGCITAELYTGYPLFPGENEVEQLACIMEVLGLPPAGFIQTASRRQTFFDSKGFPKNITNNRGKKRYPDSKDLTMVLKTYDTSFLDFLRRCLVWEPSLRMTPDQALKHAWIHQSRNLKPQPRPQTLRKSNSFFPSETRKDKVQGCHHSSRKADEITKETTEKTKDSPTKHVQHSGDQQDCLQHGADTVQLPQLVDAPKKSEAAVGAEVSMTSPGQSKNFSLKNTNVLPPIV

EPHA1 (human) = EPHA1 (human) (UniProt P21709)
EPHA5 (human) = EPHA5 (human) (UniProt P54756)
Chain of EPHA5 (human) (P54756 whole entry, looked up): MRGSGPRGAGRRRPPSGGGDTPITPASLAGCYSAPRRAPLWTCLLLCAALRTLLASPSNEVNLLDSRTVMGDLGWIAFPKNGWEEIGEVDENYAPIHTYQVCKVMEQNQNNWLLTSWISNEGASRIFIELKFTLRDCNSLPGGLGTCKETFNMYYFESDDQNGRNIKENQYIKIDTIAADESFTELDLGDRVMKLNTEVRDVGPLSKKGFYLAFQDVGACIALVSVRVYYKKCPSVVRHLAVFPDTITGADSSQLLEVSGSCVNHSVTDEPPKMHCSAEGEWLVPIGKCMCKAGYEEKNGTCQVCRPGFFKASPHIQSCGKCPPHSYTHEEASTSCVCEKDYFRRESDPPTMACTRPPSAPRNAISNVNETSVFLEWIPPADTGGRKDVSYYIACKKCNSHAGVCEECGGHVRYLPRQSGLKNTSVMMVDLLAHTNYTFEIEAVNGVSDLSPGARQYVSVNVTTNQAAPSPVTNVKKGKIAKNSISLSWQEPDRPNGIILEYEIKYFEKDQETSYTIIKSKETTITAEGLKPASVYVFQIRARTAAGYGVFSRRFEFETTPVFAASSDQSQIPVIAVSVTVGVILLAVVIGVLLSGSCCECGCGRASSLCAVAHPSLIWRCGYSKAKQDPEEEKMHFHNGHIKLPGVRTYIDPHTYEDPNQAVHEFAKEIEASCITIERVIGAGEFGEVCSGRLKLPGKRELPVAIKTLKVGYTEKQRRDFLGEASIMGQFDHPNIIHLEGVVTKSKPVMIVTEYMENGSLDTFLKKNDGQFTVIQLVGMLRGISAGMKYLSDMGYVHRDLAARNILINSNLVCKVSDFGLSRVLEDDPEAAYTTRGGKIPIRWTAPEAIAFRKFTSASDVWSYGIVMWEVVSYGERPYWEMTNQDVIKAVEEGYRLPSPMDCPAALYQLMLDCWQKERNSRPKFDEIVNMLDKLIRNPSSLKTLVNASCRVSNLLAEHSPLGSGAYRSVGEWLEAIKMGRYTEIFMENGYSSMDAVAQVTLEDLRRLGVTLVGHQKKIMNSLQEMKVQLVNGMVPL

EPHA8 (human) = EPHA8 (human) (UniProt P29322)
ERBB4 (human) = ERBB4 (human) (UniProt Q15303)
Chain of ERBB4 (human) (Q15303 whole entry, looked up): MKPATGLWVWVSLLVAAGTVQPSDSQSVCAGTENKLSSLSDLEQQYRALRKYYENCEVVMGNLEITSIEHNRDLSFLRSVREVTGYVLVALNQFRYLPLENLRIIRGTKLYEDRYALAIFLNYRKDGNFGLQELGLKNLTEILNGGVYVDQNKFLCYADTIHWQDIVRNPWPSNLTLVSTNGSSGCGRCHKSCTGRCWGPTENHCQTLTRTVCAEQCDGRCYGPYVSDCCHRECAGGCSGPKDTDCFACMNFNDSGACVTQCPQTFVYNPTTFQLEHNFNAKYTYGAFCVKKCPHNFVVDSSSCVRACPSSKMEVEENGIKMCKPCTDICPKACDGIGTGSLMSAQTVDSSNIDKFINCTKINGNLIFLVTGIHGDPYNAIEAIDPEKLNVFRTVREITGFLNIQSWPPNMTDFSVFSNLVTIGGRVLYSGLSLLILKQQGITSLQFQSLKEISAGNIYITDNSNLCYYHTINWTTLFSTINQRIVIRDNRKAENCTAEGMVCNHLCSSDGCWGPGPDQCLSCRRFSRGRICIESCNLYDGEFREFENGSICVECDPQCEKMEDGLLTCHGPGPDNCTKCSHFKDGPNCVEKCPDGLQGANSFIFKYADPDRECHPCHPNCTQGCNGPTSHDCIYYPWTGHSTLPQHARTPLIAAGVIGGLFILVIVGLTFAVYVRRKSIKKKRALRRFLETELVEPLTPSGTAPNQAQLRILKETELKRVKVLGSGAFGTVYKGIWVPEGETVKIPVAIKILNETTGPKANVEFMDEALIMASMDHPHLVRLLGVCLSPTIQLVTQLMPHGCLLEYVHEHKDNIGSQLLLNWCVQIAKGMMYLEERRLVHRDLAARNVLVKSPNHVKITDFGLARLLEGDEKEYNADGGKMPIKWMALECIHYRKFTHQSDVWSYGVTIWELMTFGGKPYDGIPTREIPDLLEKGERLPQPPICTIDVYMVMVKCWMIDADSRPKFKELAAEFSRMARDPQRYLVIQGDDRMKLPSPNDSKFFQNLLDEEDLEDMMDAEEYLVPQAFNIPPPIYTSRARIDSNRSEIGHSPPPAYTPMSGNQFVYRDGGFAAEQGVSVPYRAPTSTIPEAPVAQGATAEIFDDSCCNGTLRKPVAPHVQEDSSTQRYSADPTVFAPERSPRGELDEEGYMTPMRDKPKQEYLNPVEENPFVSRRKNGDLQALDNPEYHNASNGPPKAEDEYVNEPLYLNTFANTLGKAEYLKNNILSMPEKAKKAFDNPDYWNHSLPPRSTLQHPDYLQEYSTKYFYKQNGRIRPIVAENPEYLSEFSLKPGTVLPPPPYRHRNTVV

GRK4 (human) = GRK4 (human) (UniProt P32298)
GRK5 (human) = GRK5 (human) (UniProt P34947)
HCK (human) = HCK (human) (UniProt P08631)
HIPK1 (human) = HIPK1 (human) (UniProt Q86Z02)
INSRR (human) = INSRR (human) (UniProt P14616)
JAK2 JH1 JH2 (human) = JAK2 JH1 JH2 (human) (UniProt O60674)
LRRK2 (human) = LRRK2 (human) (UniProt Q5S007)
MAP2K2 (human) = MAP2K2 (human) (UniProt P36507)
MAP3K3 (human) = MAP3K3 (human) (UniProt Q99759)
MAP4K5 (human) = MAP4K5 (human) (UniProt Q9Y4K4)
MAPK12 (human) = MAPK12 (human) (UniProt P53778)
MAPK8 (human) = MAPK8 (human) (UniProt P45983)
MARK2 (human) = MARK2 (human) (UniProt Q7KZI7)
Chain of MARK2 (human) (Q7KZI7 whole entry, looked up): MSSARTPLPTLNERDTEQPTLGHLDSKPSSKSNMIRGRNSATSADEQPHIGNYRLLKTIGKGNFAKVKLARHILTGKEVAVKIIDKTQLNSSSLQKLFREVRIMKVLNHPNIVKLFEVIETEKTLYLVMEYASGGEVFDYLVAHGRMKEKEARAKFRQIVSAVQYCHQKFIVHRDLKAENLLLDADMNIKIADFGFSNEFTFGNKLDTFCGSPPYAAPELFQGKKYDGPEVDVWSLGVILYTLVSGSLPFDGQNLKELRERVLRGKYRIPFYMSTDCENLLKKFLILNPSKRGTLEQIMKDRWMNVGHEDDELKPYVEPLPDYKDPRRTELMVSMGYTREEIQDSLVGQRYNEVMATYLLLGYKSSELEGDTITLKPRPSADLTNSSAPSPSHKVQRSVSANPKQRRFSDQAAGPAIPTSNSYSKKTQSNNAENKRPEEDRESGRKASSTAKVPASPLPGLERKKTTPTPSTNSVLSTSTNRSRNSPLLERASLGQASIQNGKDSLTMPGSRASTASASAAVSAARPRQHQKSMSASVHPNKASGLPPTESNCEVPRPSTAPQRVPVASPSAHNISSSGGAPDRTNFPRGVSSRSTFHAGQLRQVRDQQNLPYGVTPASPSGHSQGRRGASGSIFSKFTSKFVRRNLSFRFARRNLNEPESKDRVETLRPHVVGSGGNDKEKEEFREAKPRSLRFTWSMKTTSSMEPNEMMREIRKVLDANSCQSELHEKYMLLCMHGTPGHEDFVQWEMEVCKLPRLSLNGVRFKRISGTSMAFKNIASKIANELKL

NEK1 (human) = NEK1 (human) (UniProt Q96PY6)
NEK4 (human) = NEK4 (human) (UniProt P51957)
NEK6 (human) = NEK6 (human) (UniProt Q9HC98)
NEK7 (human) = NEK7 (human) (UniProt Q8TDX7)
NEK9 (human) = NEK9 (human) (UniProt Q8TD19)
PRKCD (human) = PRKCD (human) (UniProt Q05655)
PRKCG (human) = PRKCG (human) (UniProt P05129)
PRKG1 (human) = PRKG1 (human) (UniProt Q13976)
Chain of PRKG1 (human) (Q13976 whole entry, looked up): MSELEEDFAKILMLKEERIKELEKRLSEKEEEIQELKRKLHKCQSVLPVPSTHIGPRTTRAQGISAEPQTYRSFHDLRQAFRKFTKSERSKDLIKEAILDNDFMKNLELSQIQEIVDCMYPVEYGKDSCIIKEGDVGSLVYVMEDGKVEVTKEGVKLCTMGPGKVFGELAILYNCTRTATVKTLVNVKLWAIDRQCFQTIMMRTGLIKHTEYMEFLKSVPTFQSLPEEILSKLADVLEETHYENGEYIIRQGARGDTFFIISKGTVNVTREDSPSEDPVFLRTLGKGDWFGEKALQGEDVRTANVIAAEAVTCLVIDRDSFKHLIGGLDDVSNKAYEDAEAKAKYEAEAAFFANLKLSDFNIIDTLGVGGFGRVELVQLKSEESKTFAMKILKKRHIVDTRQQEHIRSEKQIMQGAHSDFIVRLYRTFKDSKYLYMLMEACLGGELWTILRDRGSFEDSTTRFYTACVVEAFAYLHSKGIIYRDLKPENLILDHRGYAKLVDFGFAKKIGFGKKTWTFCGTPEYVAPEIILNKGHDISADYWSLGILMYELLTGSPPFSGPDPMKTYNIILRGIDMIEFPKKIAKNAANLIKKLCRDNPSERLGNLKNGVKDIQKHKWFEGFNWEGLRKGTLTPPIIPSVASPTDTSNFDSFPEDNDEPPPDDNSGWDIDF

RET (human) = RET (human) (UniProt P07949)
SGK2 (human) = SGK2 (human) (UniProt Q9HBY8)
SRPK2 (human) = SRPK2 (human) (UniProt P78362)
TAOK3 (human) = TAOK3 (human) (UniProt Q9H2K8)
YES1 (human) = YES1 (human) (UniProt P07947)
PRKD1 (human) = PRKD1 (human) (UniProt Q15139)

For CS(=O)c1ccc(-c2nc(-c3ccc(F)cc3)c(-c3ccncc3)[nH]2)cc1 (configuration not stated), the residual activity (ABL2 (human)) was 91.5%, the residual activity (BMX (human)) was 94.4% and the residual activity (BTK (human)) was 97.2%. It also gave a residual activity (CAMK1D (human)) of 105%, a residual activity (CAMK2B (human)) of 97.6% and a residual activity (CDK4 CCND3 (human)) of 105%. The residual activity (CHUK (human)) was 100%, the residual activity (CSNK1G1 (human)) was 95.7% and the residual activity (DCLK2 (human)) was 99.8%. It also gave a residual activity (DSTYK (human)) of 100%, a residual activity (DYRK4 (human)) of 99.2% and a residual activity (EPHA1 (human)) of 97%. For the same compound, the residual activity (EPHA5 (human)) was 89.5%, the residual activity (EPHA8 (human)) was 101% and the residual activity (ERBB4 (human)) was 66.8%. The residual activity (GRK4 (human)) was 95.5%, the residual activity (GRK5 (human)) was 104% and the residual activity (HCK (human)) was 96.1%. The residual activity (HIPK1 (human)) was 104%, the residual activity (INSRR (human)) was 100% and the residual activity (JAK2 JH1 JH2 (human)) was 99.5%. For the same compound, the residual activity (LRRK2 (human)) was 100%, the residual activity (MAP2K2 (human)) was 99.9% and the residual activity (MAP3K3 (human)) was 102%. For the same compound, the residual activity (MAP4K5 (human)) was 99.5%, the residual activity (MAPK12 (human)) was 105% and the residual activity (MAPK8 (human)) was 96.1%. It also gave a residual activity (MARK2 (human)) of 99.1%, a residual activity (NEK1 (human)) of 94.7% and a residual activity (NEK4 (human)) of 98.2%. For the same compound, the residual activity (NEK6 (human)) was 103%, the residual activity (NEK7 (human)) was 98.9% and the residual activity (NEK9 (human)) was 99.1%. The residual activity (PRKCD (human)) was 107%, the residual activity (PRKCG (human)) was 90% and the residual activity (PRKG1 (human)) was 88.8% and 94.3%. For the same compound, the residual activity (RET (human)) was 85.1%, the residual activity (SGK2 (human)) was 106% and the residual activity (SRPK2 (human)) was 102%. For the same compound, the residual activity (TAOK3 (human)) was 103% and the residual activity (YES1 (human)) was 92.6%.

Work on NC(=O)c1ccc(N(C(N)=O)c2c(F)cccc2F)nc1-c1ccc(F)cc1F yielded a residual activity (ABL2 (human)) of 100%, a residual activity (BMX (human)) of 108% and a residual activity (BTK (human)) of 98.2%. It also gave a residual activity (CAMK1D (human)) of 114%, a residual activity (CAMK2B (human)) of 104% and a residual activity (CDK4 CCND3 (human)) of 98.4%. The residual activity (CHUK (human)) was 100%, the residual activity (CSNK1G1 (human)) was 102% and the residual activity (DCLK2 (human)) was 97.5%. It also gave a residual activity (DSTYK (human)) of 101%, a residual activity (DYRK4 (human)) of 96.3% and a residual activity (EPHA1 (human)) of 99.1%. The residual activity (EPHA5 (human)) was 105%, the residual activity (EPHA8 (human)) was 98.7% and the residual activity (ERBB4 (human)) was 98.1%. The residual activity (GRK4 (human)) was 90.7%, the residual activity (GRK5 (human)) was 103% and the residual activity (HCK (human)) was 89.5%. For the same compound, the residual activity (HIPK1 (human)) was 100%, the residual activity (INSRR (human)) was 102% and the residual activity (JAK2 JH1 JH2 (human)) was 107%. The residual activity (LRRK2 (human)) was 82%, the residual activity (MAP2K2 (human)) was 92.3% and the residual activity (MAP3K3 (human)) was 118%. It also gave a residual activity (MAP4K5 (human)) of 98.3%, a residual activity (MAPK12 (human)) of 92.1% and a residual activity (MAPK8 (human)) of 100%. The residual activity (MARK2 (human)) was 131%, the residual activity (NEK1 (human)) was 69.6% and the residual activity (NEK4 (human)) was 104%. The residual activity (NEK6 (human)) was 90.5%, the residual activity (NEK7 (human)) was 90.1% and the residual activity (NEK9 (human)) was 104%. The residual activity (PRKCD (human)) was 104%, the residual activity (PRKCG (human)) was 91.3% and the residual activity (PRKD1 (human)) was 97.7%. The residual activity (PRKG1 (human)) was 88.1% and 95.7%, the residual activity (RET (human)) was 93.1% and the residual activity (SGK2 (human)) was 107%. For the same compound, the residual activity (TAOK3 (human)) was 95.7% and the residual activity (YES1 (human)) was 97.8%.
